Measured values taken from ChEMBL document CHEMBL4831528, “Discovery of Novel Pterostilbene-Based Derivatives as Potent and Orally Active NLRP3 Inflammasome Inhibitors with Inflammatory Activity for Colitis” (J Med Chem, 2021).
Calls of active or inactive are those of the source. The rule behind the calls is not given here.

Columns and labels:
Macrophage = test: Inhibition of NFkappaB activation in LPS-stimulated mouse bone marrow-derived macrophages assessed as reduction in TNFalpha secretion at 0.5 to 2 uM preincubated for 30 mins followed by nigericin addition and measured after 30 mins by ELISA; assay type: tissue-based; conditions: dose 0.5-2 µM, time 60.0 min
[1] = target: NACHT, LRR and PYD domains-containing protein 3 (Mus musculus) (UniProt Q8R4B8); test: Inhibition of NLRP3 inflammasome activation in LPS-stimulated mouse J774A.1 cells assessed as inhibition of cell pyrolysis at 10 uM incubated for 1 hr followed by ATP addition and measured after 30 mins by Hoechst 33342/propidium iodide staining based high content screening method relative to control; conditions: J774.A1, time 1.5 hrs
Target sequence in this assay (Q8R4B8 whole entry, the tested form may be a part): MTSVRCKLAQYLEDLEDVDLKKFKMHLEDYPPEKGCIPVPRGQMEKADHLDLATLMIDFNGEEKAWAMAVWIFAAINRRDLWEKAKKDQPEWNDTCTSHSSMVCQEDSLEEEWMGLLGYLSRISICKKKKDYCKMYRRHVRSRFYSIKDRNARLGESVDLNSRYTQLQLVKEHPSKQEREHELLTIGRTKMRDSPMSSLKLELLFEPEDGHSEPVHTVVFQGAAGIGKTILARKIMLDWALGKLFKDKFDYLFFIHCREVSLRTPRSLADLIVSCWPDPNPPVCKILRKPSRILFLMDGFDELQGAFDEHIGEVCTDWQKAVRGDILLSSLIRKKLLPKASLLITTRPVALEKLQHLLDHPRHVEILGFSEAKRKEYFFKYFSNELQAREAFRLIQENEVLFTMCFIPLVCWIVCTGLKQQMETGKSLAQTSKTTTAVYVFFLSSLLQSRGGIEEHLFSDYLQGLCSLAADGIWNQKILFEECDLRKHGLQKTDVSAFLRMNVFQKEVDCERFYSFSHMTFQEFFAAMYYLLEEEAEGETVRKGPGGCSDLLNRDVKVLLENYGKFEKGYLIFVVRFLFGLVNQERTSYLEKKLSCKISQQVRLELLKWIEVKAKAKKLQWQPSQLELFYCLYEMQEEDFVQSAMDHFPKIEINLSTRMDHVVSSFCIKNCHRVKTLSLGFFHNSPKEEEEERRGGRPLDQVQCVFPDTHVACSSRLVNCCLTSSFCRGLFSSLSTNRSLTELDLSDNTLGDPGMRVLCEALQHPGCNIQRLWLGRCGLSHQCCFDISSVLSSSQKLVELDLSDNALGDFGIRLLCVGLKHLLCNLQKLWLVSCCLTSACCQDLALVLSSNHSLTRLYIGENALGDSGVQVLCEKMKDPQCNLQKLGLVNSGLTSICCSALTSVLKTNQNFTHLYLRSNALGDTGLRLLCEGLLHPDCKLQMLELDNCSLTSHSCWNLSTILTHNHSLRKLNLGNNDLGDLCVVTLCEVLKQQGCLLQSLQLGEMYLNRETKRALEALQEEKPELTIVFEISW

[2] = AUC (0 to infinity) in mouse at 2 mg/kg, iv measured after 0.08 to 24 hrs by LC-MS/MS analysis; assay type: ADME, organism-based; set-up: route intravenous, time upper 24 hrs, dose 2 mg/kg, time lower 0.08 hrs; conditions: in vivo
[3] = target: NACHT, LRR and PYD domains-containing protein 3 (Mus musculus) (UniProt Q8R4B8); test: Inhibition of NLRP3 inflammasome activation in LPS-stimulated mouse bone marrow-derived macrophages assessed as reduction in caspase1 p20 in supernatant at 2 uM preincubated for 30 mins followed by MSU addition and measured after 0.5 hrs by Western blot analysis; assay type: tissue-based; conditions: Macrophage, time 60.0 min
Target sequence in this assay (Q8R4B8 whole entry, the tested form may be a part): as above

[4] = Intrinsic clearance in mouse liver microsomes preincubated for 5 mins followed by NADPH addition and measured after 5 to 60 mins by LC-MS/MS analysis; assay type: ADME, Microsome; conditions: time 5-60 min, read-out: CLH
[5] = Cmax in mouse at 2 mg/kg, iv measured after 0.08 to 24 hrs by LC-MS/MS analysis; assay type: ADME, organism-based; set-up: route intravenous, time 0.08-24 hrs, dose 2 mg/kg; conditions: in vivo
[6] = Toxicity in C57BL/6 mouse assessed as loose fur at 20 to 40 mg/kg, ig administered for 28 days; assay type: organism-based; conditions: in vivo, po, 672 h, dose 20-40 mg/kg, time 28 day
[7] = Toxicity in C57BL/6 mouse assessed as effect on heart at 20 to 40 mg/kg, ig administered for 28 days; assay type: organism-based; conditions: in vivo, po, 672 h, dose 20-40 mg/kg, time 28 day
[8] = target: NACHT, LRR and PYD domains-containing protein 3 (Mus musculus) (UniProt Q8R4B8); test: Inhibition of NLRP3 inflammasome activation in LPS-stimulated mouse bone marrow-derived macrophages assessed as reduction in ILbeta secretion at 2 uM preincubated for 30 mins followed by ATP addition and measured after 0.5 hrs by ELISA; assay type: tissue-based; conditions: Macrophage, time 60.0 min
Target sequence in this assay (Q8R4B8 whole entry, the tested form may be a part): as above

[9] = Inhibition of ROS production in LPS-stimulated mouse bone marrow-derived macrophages at 1 to 4 uM preincubated for 30 mins followed by nigericin addition and measured after 0.5 hrs by Western blot analysis; conditions: Macrophage, dose 1-4 µM, time 60.0 min
[10] = Half life in mouse at 2 mg/kg, iv measured after 0.08 to 24 hrs by LC-MS/MS analysis; assay type: ADME, organism-based; conditions: in vivo, time 0.08-24 hrs
[11] = target: NACHT, LRR and PYD domains-containing protein 3 (Mus musculus) (UniProt Q8R4B8); test: Inhibition of NLRP3 inflammasome activation in LPS-stimulated mouse bone marrow-derived macrophages assessed as reduction in cleaved IL-1beta secretion preincubated for 30 mins followed by nigericin addition and measured after 30 mins by Western blot analysis; assay type: tissue-based; conditions: Macrophage, time 60.0 min
Target sequence in this assay (Q8R4B8 whole entry, the tested form may be a part): as above

[12] = Half life in mouse at 20 mg/kg, po measured up to 24 hrs by LC-MS/MS analysis; assay type: ADME, organism-based; conditions: in vivo
[13] = target: NACHT, LRR and PYD domains-containing protein 3 (Mus musculus) (UniProt Q8R4B8); test: Inhibition of NLRP3 inflammasome activation in LPS-stimulated mouse bone marrow-derived macrophages assessed as reduction in cell pyrolysis at 5 to 25 uM preincubated for 30 mins followed by nigericin addition and measured after 30 mins by Western blot analysis; assay type: tissue-based; conditions: Macrophage, dose 5-25 µM, time 60.0 min
Target sequence in this assay (Q8R4B8 whole entry, the tested form may be a part): as above

[14] = target: NACHT, LRR and PYD domains-containing protein 3 (Mus musculus) (UniProt Q8R4B8); test: Inhibition of NLRP3 inflammasome activation in LPS-stimulated mouse bone marrow-derived macrophages assessed as reduction in caspase1 secretion at 1 to 4 uM preincubated for 30 mins followed by nigericin addition and measured after 0.5 hrs by Western blot analysis; assay type: tissue-based; conditions: Macrophage, dose 1-4 µM
Target sequence in this assay (Q8R4B8 whole entry, the tested form may be a part): as above

[15] = target: NACHT, LRR and PYD domains-containing protein 3 (Mus musculus) (UniProt Q8R4B8); test: Inhibition of NLRP3 inflammasome activation in LPS-stimulated mouse bone marrow-derived macrophages assessed as reduction in ASC polymerization at 1 to 4 uM preincubated for 30 mins followed by nigericin addition and measured after 0.5 hrs by DAPI staining based confocal scanning microscopy; conditions: Macrophage, dose 1-4 µM
Target sequence in this assay (Q8R4B8 whole entry, looked up, the tested form may be a part): as the sequence (Q8R4B8 whole entry, the tested form may be a part) above

[16] = target: NACHT, LRR and PYD domains-containing protein 3 (Mus musculus) (UniProt Q8R4B8); test: Inhibition of NLRP3 inflammasome activation in LPS-stimulated mouse bone marrow-derived macrophages assessed as reduction in NLRP3/ASC protein-protein interaction preincubated for 30 mins followed by nigericin addition and measured after 30 mins by immunoprecipitation method; assay type: tissue-based; conditions: Macrophage, time 60.0 min
[17] = target: NACHT, LRR and PYD domains-containing protein 3 (Mus musculus) (UniProt Q8R4B8); test: Inhibition of NLRP3 inflammasome activation in LPS-stimulated mouse bone marrow-derived macrophages assessed as attenuation of ASC monomer at 1 to 4 uM preincubated for 30 mins followed by nigericin addition and measured after 0.5 hrs by Western blot analysis; assay type: tissue-based; conditions: Macrophage, dose 1-4 µM, time 60.0 min
[18] = Hepatic clearance in human liver microsomes preincubated for 5 mins followed by NADPH addition and measured after 5 to 60 mins by LC-MS/MS analysis; assay type: ADME, Microsome; conditions: time 5-60 min
[19] = target: NACHT, LRR and PYD domains-containing protein 3 (Mus musculus) (UniProt Q8R4B8); test: Inhibition of NLRP3 inflammasome activation in LPS-stimulated mouse bone marrow-derived macrophages assessed as reduction in ILbeta secretion at 2 uM preincubated for 30 mins followed by nigericin addition and measured after 0.5 hrs by ELISA; assay type: tissue-based; conditions: Macrophage, time 60.0 min
[20] = target: NACHT, LRR and PYD domains-containing protein 3 (Mus musculus) (UniProt Q8R4B8); test: Binding affinity to NLRP3 in mouse J774A1 cells assessed as thermal stabilization at 50 uM incubated for 30 mins by cellular thermal shift assay; assay type: cell-based; conditions: J774.A1
[21] = target: NACHT, LRR and PYD domains-containing protein 3 (Mus musculus) (UniProt Q8R4B8); test: Inhibition of NLRP3 inflammasome activation in LPS-stimulated mouse bone marrow-derived macrophages assessed as reduction in cleaved IL-1beta secretion in supernatant at 2 uM preincubated for 30 mins followed by nigericin addition and measured after 0.5 hrs by Western blot analysis; assay type: tissue-based; conditions: Macrophage, time 60.0 min
[22] = target: NACHT, LRR and PYD domains-containing protein 3 (Mus musculus) (UniProt Q8R4B8); test: Inhibition of NLRP3 inflammasome activation in LPS-stimulated mouse bone marrow-derived macrophages assessed as reduction in NEK7-NLRP3 protein-protein interaction preincubated for 30 mins followed by nigericin addition and measured after 30 mins by immunoprecipitation method; assay type: tissue-based; conditions: Macrophage, time 60.0 min
[23] = Toxicity in C57BL/6 mouse assessed as induction of anorexia at 20 to 40 mg/kg, ig administered for 28 days; assay type: organism-based; conditions: in vivo, po, 672 h, dose 20-40 mg/kg, time 28 day
Mus musculus [24] = test: Protection against DSS-induced acute ulcerative colitis in C57BL/6 mouse assessed as reduction in body weight at 10 to 20 mg/kg, ig administered for 7 days; assay type: functional, organism-based; conditions: dose 10-20 mg/kg, time 7.0 day
[25] = Clearance in mouse at 2 mg/kg, iv measured after 0.08 to 24 hrs by LC-MS/MS analysis; assay type: ADME, organism-based; conditions: in vivo, time 0.08-24 hrs
Mus musculus [26] = test: Downregulation of phosphorylated STAT3 expression in colon of C57BL/6 mouse model of DSS-induced ulcerative colitis at 10 to 20 mg/kg, ig administered for 7 days by Western blot analysis; assay type: functional, organism-based; conditions: dose 10-20 mg/kg, time 7.0 day
Mus musculus [27] = test: Protection against DSS-induced acute ulcerative colitis in C57BL/6 mouse assessed as reduction in bloody stool at 10 to 20 mg/kg, ig administered for 7 days; assay type: functional, organism-based; conditions: dose 10-20 mg/kg, time 7.0 day
[28] = Intrinsic clearance in human liver microsomes preincubated for 5 mins followed by NADPH addition and measured after 5 to 60 mins by LC-MS/MS analysis; assay type: ADME, Microsome; conditions: time 5-60 min, read-out: CLH
[29] = target: NACHT, LRR and PYD domains-containing protein 3 (Mus musculus) (UniProt Q8R4B8); test: Inhibition of NLRP3 inflammasome activation in LPS-stimulated mouse bone marrow-derived macrophages assessed as attenuation of ASC polymer at 1 to 4 uM preincubated for 30 mins followed by nigericin addition and measured after 0.5 hrs by Western blot analysis; assay type: tissue-based; conditions: Macrophage, dose 1-4 µM, time 60.0 min

- inhibition [1]: 73.1%
- AUC(0-inf) [2]: 583 ng·h/mL
- inhibition [3]: Active
- microsomal CLint [4]: 32 µL/min/mg
- Cmax [5]: 355 ng/mL
- inhibition [8]: Active
- inhibition [9]: inactive
- half-life [10]: 0.96 h
- inhibition [11]: Dose-Dependent Effect
- half-life [12]: 4.93 h
- inhibition [13]: Active
- inhibition [14]: Active
- inhibition [15]: Active
- inhibition [16]: Dose-Dependent Effect
- inhibition [17]: Active
- CLhep predicted [18]: 11 mL/min/kg
- inhibition [19]: Active
- Activity [20]: Active
- inhibition [21]: Active
- inhibition [22]: Dose-Dependent Effect
- clearance [25]: 87.5 mL/min/kg
- microsomal CLint [28]: 20.3 µL/min/mg
- inhibition [29]: Active
SMILES: COc1cc(/C=C/c2ccc(NC(=O)C3CC3)cc2)c(/C=C/[N+](=O)[O-])c(OC)c1
- inhibition (Macrophage): inactive
- Activity [6]: Non-Toxic
- Activity [7]: Non-Toxic
- Activity [23]: Non-Toxic
- Activity (Mus musculus [24]): Active
- Activity (Mus musculus [26]): Active
- Activity (Mus musculus [27]): Active
